Data as given in EP0623350A1, “Use of Bradykinin-antagonists for the manufacture of a medicament for the prophylaxis and treatment of arteriosclerosis” (HOECHST AKTIENGESELLSCHAFT, priority 1993, dated 1994).

Legend:
Format in all cases: in vivo, weißen Kaninchen (New Zealand)
[1] = tested on: atherosklerotischen Plaques in der Aorta; assay: Atherosclerotic plaques in the aorta of cholesterol-fed rabbits (Oil Red O staining, image analysis)
Excerpt: (§1) Der Versuch wurde mit weißen Kaninchen (New Zealand) männlichen Geschlechts mit einem Gewicht von 3-4 Kilogramm in Anlehnung an die publizierten Methoden nach A. Kisanuki, Y. Asada, K. Hatakeyama, T. Hayashi und A. Sumiyoshi: Contributions of the Endothelium to Intimal Thickening in Normocholesterolemic and Hypercholesterolemic Rabbits, Arteriosclerosis and Thrombosis (1992), 12; 1198 - 1205 und J. Cooke, A. Singer, P. Tsao, P. Zera, R.Rowan and M. Billingham: Antiatherogenic Effects of L-Arginine in the Hypercholesterolemic Rabbit(1992), 90; 1168 - 1172 durchgeführt. Nach einer Woche unter Standard-Kaninchenfutter (Altromin 2834, Lage-Lippe, Deutschland) wurden zwei Gruppen mit je 15 Kaninchen drei Monate lang mit cholesterinreicher Diät gefüttert. Die Diät enthielt 0.25% Cholesterin und 3% Kokosnußöl. Eine der beiden Gruppen erhielt zusätzlich eine subkutane Dauerinfusion von HOE 140 über implantierte osmotische Minipumpen über den gesamten Zeitraum von drei Monaten. Die Dosis betrug 100 µg/kg/Tag.
(§2) Eine weitere Gruppe von 15 Kaninchen, die nicht-atherogene normale Diät erhielt, diente als negative Kontrolle. Futter und Wasser wurden ad libitum gegeben. Der Nachweis, daß die gewählte Dosis HOE 140 die Wirkung endogener Kinine hemmen kann, wurde über die Hemmung der blutdrucksenkenden Wirkung von exogenem Bradykinin geführt. Am Ende des Versuches, nach dreimonatiger Behandlung, wurden die Tiere narkotisiert und der basale Blutdruck gemessen. Der basale Blutdruck lag zwischen 100 und 110 mm Hg. Nach der Messung des basalen Blutdrucks wurde Bradykinin intraarteriell als Bolus in einer Dosis von 10 ng injiziert. Bei den Tieren mit normalem Futter führte dies zu einem Blutdruckabfall von 21 mm Hg, bei den Tieren mit atherogener Diät betrug der Blutdruckabfall 24 mm Hg. Bei Kaninchen mit atherogener Diät, die mit HOE 140 behandelt wurden, fiel der Blutdruck nur noch um 3.7 mm Hg, was eine effektive Hemmung der Bradykininwirkung durch HOE 140 anzeigte.
(§3) Danach wurden die Kaninchen mit einer hohen Dosis von Pentobarbital (40 mg/kg) getötet und eine komplette Autopsie durchgeführt. Die atherosklerotischen Plaques wurden durch Öl-Rot O ([…]) sichtbar gemacht, ihr Ausmaß mittels eines Bildanalysators quantifiziert und die prozentuale Plaquegröße in der Aorta bestimmt. Weiterhin wurden die Cholesterinfraktionen (HDL, LDL und VLDL) im Serum mit Hilfe der Ultrazentrifugation bestimmt.

[2] = tested on: Serum Lipoprotein Fraktionen; assay: Serum cholesterol/lipoprotein fractions (HDL, LDL, VLDL) by ultracentrifugation in cholesterol-fed rabbits
Excerpt: as §1, §3

[3] = tested on: blutdrucksenkenden Wirkung von exogenem Bradykinin; assay: Inhibition of the blood-pressure-lowering effect of exogenous bradykinin in anaesthetised rabbits; settings: Bradykinin 10 ng intra-arterial bolus; anaesthetised rabbits on atherogenic diet after 3 months HOE 140 100 µg/kg/Tag s.c.; untreated controls 21 and 24 mm Hg
Excerpt: as §2

[4] = atherogenic diet 3 months plus HOE 140 100 µg/kg/Tag s.c. continuous infusion, mean ± S.E.M.

For `N=C(N)NCCC[C@@H](N)C(=O)N[C@@H](CCCNC(=N)N)C(=O)N1CCC[C@H]1C(=O)N1C[C@H](O)C[C@H]1C(=O)NCC(=O)N[C@@H](Cc1cccs1)C(=O)N[C@@H](CO)C(=O)N1Cc2ccccc2C[C@@H]1C(=O)N1[C@H](C(=O)N[C@@H](CCCNC(=N)N)C(=O)O)C[C@@H]2CCCC[C@@H]21` [HOE 140], the “Plaques in der Aorta: Fläche in Prozent der Intimafläche, Thorakale Aorta” value [1, 4] was 1.6 ± 1.1 Prozent der Intimafläche, the “Plaques in der Aorta: Fläche in Prozent der Intimafläche, Aortenbogen” value ([1]; atherogenic diet (0.25% Cholesterin, 3% Kokosnußöl) 3 months plus HOE 140 100 µg/kg/Tag s.c. continuous infusion, mean ± S.E.M.) was 23.4 ± 5.4 Prozent der Intimafläche and the “Plaques in der Aorta: Fläche in Prozent der Intimafläche, Abdominelle Aorta 1” value ([1]; first section of abdominal aorta, atherogenic diet 3 months plus HOE 140 100 µg/kg/Tag s.c. continuous infusion, mean ± S.E.M.) was 1.4 ± 0.6 Prozent der Intimafläche. For the same compound, the “Arteriosklerotische Veränderungen der Gefäßwände” value ([1]; result in words, cholesterol-fed rabbits treated with HOE 140) was “stark reduziert”, the “Atherosklerotische Veränderungen des Aortenbogens und der Aortenabschnitte in Brust und Bauch” value ([1]; result in words, versus atherogenic diet alone) was “bei weitem geringer” and the “Plaques in der Aorta: Fläche in Prozent der Intimafläche, Abdominelle Aorta 2” value ([1]; second section of abdominal aorta, atherogenic diet 3 months plus HOE 140 100 µg/kg/Tag s.c. continuous infusion, mean ± S.E.M.) was 7.0 ± 1.5 Prozent der Intimafläche. For the same compound, the “Serum Lipoprotein Fraktionen, HDL” value [2, 4] was 4981 ± 576 µg/mL, the “Serum Lipoprotein Fraktionen, LDL” value [2, 4] was 168 ± 21 µg/mL and the “Serum Lipoprotein Fraktionen, VLDL” value [2, 4] was 250 ± 12 µg/mL. The HDL-Werte ([2]; result in words, HDL raised by cholesterol-rich diet) was “keinen Einfluß”, the “LDL und VLDL (Serumlipide)” value ([2]; result in words, versus atherogenic diet alone, hardly distinguishable from normal-diet controls) was “stark erniedrigt” and the “Blutdruckabfall nach Bradykinin” value [3] was 3.7 mm Hg.
